# Laboratory results taken from patent publication US9850225B2, “Compounds useful as immunomodulators” (BRISTOL-MYERS SQUIBB COMPANY, priority 2014, dated 2017).
# Target: PD-1/PD-L1 interaction (PD-1-Ig / PD-L1-His) (Homo sapiens (Human), UniProt Q9NZQ7)
# Experiment: PD-1/PD-L1 Homogenous Time-Resolved Fluorescence (HTRF) binding assay
# Conditions: PD-1/PD-L1 HTRF binding assay; numeric value; read-out: Range or IC50
# Source text: The ability of the compounds of formula (I) to bind to PD-L1 was investigated using a PD-1/PD-L1 Homogenous Time-Resolved Fluorescence (HTRF) binding assay.
# Homogenous Time-Resolved Fluorescence (HTRF) Binding Assay.
# The interaction of PD-1 and PD-L1 can be assessed using soluble, purified preparations of the extracellular domains of the two proteins. The PD-1 and PD-L1 protein extracellular domains were expressed as fusion proteins with detection tags, for PD-1, the tag was the Fc portion of Immunoglobulin (PD-1-Ig) and for PD-L1 it was the 6 histidine motif (PD-L1-His). All binding studies were performed in an HTRF assay buffer consisting of dPBS supplemented with 0.1% […] bovine serum albumin and 0.05% (v/v) Tween-20. For the h/PD-L1-His binding assay, inhibitors were pre-incubated with PD-L1-His (10 nM final) for 15 m in 4 μl of assay buffer, followed by addition of PD-1-Ig (20 nM final) in 1 μl of assay buffer and further incubation for 15 m. HTRF detection was achieved using europium crypate-labeled anti-Ig (1 nM final) and allophycocyanin (APC) labeled anti-His (20 nM final). Antibodies were diluted in HTRF detection buffer and 5 μl was dispensed on top of the binding reaction. […] Additional binding assays were established between the human proteins PD-1-Ig/PD-L2-His (20 & 5 nM, respectively) and CD80-His/PD-L1-Ig (100 & 10 nM, respectively). […]
# Chain of PD-1/PD-L1 interaction (PD-1-Ig / PD-L1-His) (Q9NZQ7 other isoform, or with tags, fused parts or gaps): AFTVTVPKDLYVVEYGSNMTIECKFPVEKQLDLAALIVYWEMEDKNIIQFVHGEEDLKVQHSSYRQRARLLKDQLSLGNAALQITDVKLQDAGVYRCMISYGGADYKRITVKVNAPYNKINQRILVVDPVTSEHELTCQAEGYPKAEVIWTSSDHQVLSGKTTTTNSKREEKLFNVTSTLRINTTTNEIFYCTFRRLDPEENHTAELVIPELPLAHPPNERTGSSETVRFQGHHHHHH
row,IC50,SMILES
1,80 nM,"Cc1c(COc2cc(OCc3cncc(S(C)(=O)=O)c3)c(CO)cc2Cl)cccc1-c1ccc2c(c1)OCCO2 [Example 3013, (5-chloro-4-{[3-(2,3-dihydro-1,4-benzodioxin-6-yl)-2-methylphenyl]methoxy}-2-[(5-methanesulfonylpyridin-3-yl)methoxy]phenyl)methanol]"

# Same assay, conditions: PD-1/PD-L1 HTRF binding assay; value given as range class; read-out: Range or IC50
row,IC50,SMILES
1,100 to 20000 nM,"COc1cc(COc2cc(OCc3cccc(-c4ccc5c(c4)OCCO5)c3C)c(Cl)cc2CO)ccn1 [Example 3016, (5-chloro-4-{[3-(2,3-dihydro-1,4-benzodioxin-6-yl)-2-methylphenyl]methoxy}-2-[(2-methoxypyridin-4-yl)methoxy]phenyl)methanol]"
2,100 to 20000 nM,"COc1ccc(COc2cc(OCc3cccc(-c4ccccc4)c3C)ccc2CNCCNC(C)=O)cc1 [Example 1090, N-(2-((2-((4-methoxybenzyl)oxy)-4-((2-methyl-[1,1′-biphenyl]-3-yl)methoxy)benzyl)amino)ethyl)acetamide]"
3,100 to 20000 nM,"CC(=O)NCCNCc1ccc(OCc2cccc(-c3ccccc3)c2C)cc1OCc1ccc(Cl)cc1 [Example 1068, N-(2-((2-((4-chlorobenzyl)oxy)-4-((2-methyl-[1,1′-biphenyl]-3-yl)methoxy)benzyl)amino)ethyl)acetamide]"
4,10 to 100 nM,"Cc1c(C#N)cncc1COc1cc(OCc2cccc(-c3ccccc3)c2C)ccc1CN[C@H](CO)C(=O)O [Example 1324, (R)-2-(2-((5-cyano-4-methylpyridin-3-yl)methoxy)-4-((2-methylbiphenyl-3-yl)methoxy)benzylamino)-3-hydroxypropanoic acid]"
5,100 to 20000 nM,"CC(=O)NCCNCc1ccc(OCc2cccc(-c3ccccc3)c2C)cc1OCc1cccc2cccnc12 [Example 1074, N-(2-((4-((2-methyl-[1,1′-biphenyl]-3-yl)methoxy)-2-(quinolin-8-ylmethoxy)benzyl)amino)ethyl)acetamide]"
6,0.6 to 10 nM,"Cc1cc(CN[C@](C)(CO)C(=O)O)c(OCc2cncc(C#N)c2)cc1OCc1cccc(-c2ccc3c(c2)OCCO3)c1C [Example 1287, (R)-2-(2-((5-cyanopyridin-3-yl)methoxy)-4-(3-(2,3-dihydrobenzo[b][1,4]dioxin-6-yl)-2-methylbenzyloxy)-5-methylbenzylamino)-3-hydroxy-2-methylpropanoic acid]"
7,10 to 100 nM,"Cc1c(COc2cc(OCc3cccc(C#N)c3)c(CN3CCc4nc[nH]c4C3C(=O)O)cc2Cl)cccc1-c1ccc2c(c1)OCCO2 (centres unmarked) [Example 1226, 5-(5-chloro-2-((3-cyanobenzyl)oxy)-4-((3-(2,3-dihydrobenzo[b][1,4]dioxin-6-yl)-2-methylbenzyl)oxy)benzyl)-4,5,6,7-tetrahydro-3H-imidazo[4,5-c]pyridine-4-carboxylic acid]"
8,100 to 20000 nM,"CCOC(=O)c1cncc(COc2cc(OCc3cccc(-c4ccc5c(c4)OCCO5)c3C)c(Cl)cc2CN[C@@](C)(CO)C(=O)O)c1 [Example 2000, (S)-2-((5-chloro-4-((3-(2,3-dihydrobenzo[b][1,4]dioxin-6-yl)-2-methylbenzyl)oxy)-2-((5-(ethoxycarbonyl)pyridin-3-yl)methoxy)benzyl)amino)-3-hydroxy-2-methylpropanoic acid]"
9,10 to 100 nM,"CC(=O)NCCNCc1ccc(OCc2cccc(-c3ccccc3)c2C)cc1OCc1cccc(C#N)c1 [Example 1028, N-(2-((2-((3-cyanobenzyl)oxy)-4-((2-methyl-[1,1′-biphenyl]-3-yl)methoxy)benzyl)amino)ethyl)acetamide]"
10,10 to 100 nM,"Cc1c(COc2cc(OCc3cccc(C#N)c3)c(CN[C@@H](CCS(C)(=O)=O)C(=O)O)cc2Cl)cccc1-c1ccc2c(c1)OCCO2 [Example 1200, (S)-2-((5-chloro-2-((3-cyanobenzyl)oxy)-4-((3-(2,3-dihydrobenzo[b][1,4]dioxin-6-yl)-2-methylbenzyl)oxy)benzyl)amino)-4-(methylsulfonyl)butanoic acid]"
11,100 to 20000 nM,"CC(=O)NCCNCc1ccc(OCc2cccc(-c3ccccc3)c2C)cc1OCc1ccc(F)cc1 [Example 1075, N-(2-((2-((4-fluorobenzyl)oxy)-4-((2-methyl-[1,1′-biphenyl]-3-yl)methoxy)benzyl)amino)ethyl)acetamide]"
12,100 to 20000 nM,"COc1cc(COc2cc(OCc3cccc(-c4ccccc4)c3C)ccc2CNCCNC(C)=O)ccc1F [Example 1093, N-(2-((2-((4-fluoro-3-methoxybenzyl)oxy)-4-((2-methyl-[1,1′-biphenyl]-3-yl)methoxy)benzyl)amino)ethyl)acetamide]"
13,100 to 20000 nM,"Cc1c(COc2cc(OCc3ccnc(C(=O)N(C)C)c3)c(CO)cc2Cl)cccc1-c1ccc2c(c1)OCCO2 [Example 3019, 4-(4-chloro-5-{[3-(2,3-dihydro-1,4-benzodioxin-6-yl)-2-methylphenyl]methoxy}-2-(hydroxymethyl)phenoxymethyl)-N,N-dimethylpyridine-2-carboxamide]"
14,0.6 to 10 nM,"Cc1c(COc2ccc(CN[C@H](CO)C(=O)O)c(OCc3cncc(C#N)c3)c2)cccc1-c1ccccc1 [Example 1327, (R)-2-((2-((5-cyanopyridin-3-yl)methoxy)-4-((2-methyl-[1,1′-biphenyl]-3-yl)methoxy)benzyl)amino)-3-hydroxypropanoic acid]"
15,0.6 to 10 nM,"Cc1c(COc2ccc(CNC[C@@H](O)CC(=O)O)c(OCc3cccc(C#N)c3)c2)cccc1-c1ccc2c(c1)OCCO2 [Example 1121, (S)-4-(2-(3-cyanobenzyloxy)-4-(3-(2,3-dihydrobenzo[b][1,4]dioxin-6-yl)-2-methylbenzyloxy)benzylamino)-3-hydroxybutanoic acid]"
16,100 to 20000 nM,"CC(=O)NCCNCc1ccc(OCc2cccc(-c3ccccc3)c2C)cc1OCc1ccncn1 [Example 1100, N-(2-((4-((2-methyl-[1,1′-biphenyl]-3-yl)methoxy)-2-(pyrimidin-4-ylmethoxy)benzyl)amino)ethyl)acetamide]"
17,10 to 100 nM,"N#Cc1cccc(COc2cc(OCc3cccc(-c4ccc5c(c4)OCCO5)c3Cl)ccc2CN2CCCC[C@H]2C(=O)O)c1 [Example 1145, (S)-1-(4-(2-chloro-3-(2,3-dihydrobenzo[b][1,4]dioxin-6-yl)benzyloxy)-2-(3-cyanobenzyloxyl)benzyl)piperidine-2-carboxylic acid]"
18,0.6 to 10 nM,"Cc1cc(CN[C@](C)(CO)C(=O)O)c(OCc2cccnc2)cc1OCc1cccc(-c2ccc3c(c2)OCCO3)c1C [Example 1281, (R)-2-((4-((3-(2,3-dihydrobenzo[b][1,4]dioxin-6-yl)-2-methylbenzyl)oxy)-5-methyl-2-(pyridin-3-ylmethoxy)benzyl)amino)-3-hydroxy-2-methylpropanoic acid]"
19,0.6 to 10 nM,"COc1cc(OCc2cccc(-c3ccc4c(c3)OCCO4)c2C)cc(OCc2cccc(C#N)c2)c1CN[C@@H](CO)C(=O)O [Example 1141, (S)-2-((2-((3-cyanobenzyl)oxy)-4-((3-(2,3-dihydrobenzo[b][1,4]dioxin-6-yl)-2-methylbenzyl)oxy)-6-methoxybenzyl)amino)-3-hydroxypropanoic acid]"
20,10 to 100 nM,"CSCC[C@H](NCc1cc(Cl)c(OCc2cccc(-c3ccc4c(c3)OCCO4)c2C)cc1OCc1cccc(C#N)c1)C(=O)O [Example 1202, (S)-2-((5-chloro-2-((3-cyanobenzyl)oxy)-4-((3-(2,3-dihydrobenzo[b][1,4]dioxin-6-yl)-2-methylbenzyl)oxy)benzyl)amino)-4-(methylthio)butanoic acid]"
21,0.6 to 10 nM,"CC(=O)Nc1cc(COc2cc(OCc3cccc(-c4ccc5c(c4)OCCO5)c3C)c(Cl)cc2CN[C@@](C)(CO)C(=O)O)ccn1 [Example 3011, (S)-2-((2-((2-acetamidopyridin-4-yl)methoxy)-5-chloro-4-((3-(2,3-dihydrobenzo[b][1,4]dioxin-6-yl)-2-methylbenzyl)oxy)benzyl)amino)-3-hydroxy-2-methylpropanoic acid]"
22,100 to 20000 nM,"Cc1c(COc2ccc(CNC[C@@H](O)CC(=O)O)c(OCc3cccc(C#N)c3)c2Cl)cccc1-c1ccc2c(c1)OCCO2 [Example 1240, (S)-4-((3-chloro-2-((3-cyanobenzyl)oxy)-4-((3-(2,3-dihydrobenzo[b][1,4]dioxin-6-yl)-2-methylbenzyl)oxy)benzyl)amino)-3-hydroxybutanoic acid]"
23,10 to 100 nM,"Cc1c(COc2cc(OCc3cccc(C#N)c3)c(CN[C@H](Cc3cn(Cc4ccccc4)cn3)C(=O)O)cc2Cl)cccc1-c1ccc2c(c1)OCCO2 [Example 1228, (R)-3-(1-benzyl-1H-imidazol-4-yl)-2-((5-chloro-2-((3-cyanobenzyl)oxy)-4-((3-(2,3-dihydrobenzo[b][1,4]dioxin-6-yl)-2-methylbenzyl)oxy)benzyl)amino)propanoic acid]"
24,100 to 20000 nM,COc1cc(COc2cc(OCc3cccc(-c4ccccc4)c3C)ccc2CNCCNC(C)=O)cc(OC)c1 [Example 1107]
25,10 to 100 nM,"CC(=O)NCCNCc1ccc(OCc2cccc(-c3ccccc3)c2C)cc1OCc1ccncc1 [Example 1111, N-(2-((4-((2-methyl-[1,1′-biphenyl]-3-yl)methoxy)-2-(pyridin-4-ylmethoxy)benzyl)amino)ethyl)acetamide]"
